Experimental findings from article PMC10819458, “Using Pharmacokinetic–Pharmacodynamic Modeling to Study the Main Active Substances of the Anticancer Effect in Mice from Panax ginseng–Ophiopogon japonicus” (Molecules, 2024) are described below.

This data set in a line: Lung-tissue pharmacokinetics of PG–OJ components in tumor-bearing mice (UPLC–MS/MS). It is filed as in vivo, BALB/c nude male mice. Particulars: mouse, in vivo, po. From the text:
This study employed Ultra-Performance Liquid Chromatography–Mass Spectrometry (UPLC–MS/MS) to examine the pharmacokinetic properties of 20 bioactive components in a cell-derived xenograft (CDX) model following oral administration of a 10.2 g/kg PG–OJ extract.
Healthy BALB/c nude male mice (weight: 18–21 g) were purchased from Beijing Huafukang Biotechnology Co., Ltd. (Beijing, China, License Number: SCXK (Jing) 2021-0006). After 3 days of acclimatization, the mice were randomly divided into the control group (CG), model group (MG), and the combined-administration group of P. ginseng and O. japonicus (HM1-HM13) ([…], four-fold clinical-equivalent doses). Subsequently, except for the CG, 0.2 mL (approximately 2 × 10^7 cells) of A549 cell suspension was aspirated with a 1 mL syringe and injected into the right axillary fossa of the model group and drug-administration-group mice. The control-group mice were injected with an equal volume of PBS at the same location. The tumor diameter was measured daily using a caliper. The model was successful when the tumor diameter > 3 mm. The combined-administration group of P. ginseng and O. japonicus was given the corresponding drug orally, once a day, with 0.2 mL/mouse each time. The control group and the model group mice were given the same volume of distilled water, continuously orally for 21 days. During this period, the body weight and tumor volume of the mice were recorded. At the end of the last administration, the mice were […] 0.083, 0.167, 0.25, 0.5, 0.75, 1, 2, 3, 4, 6, 8, 12, 24 h later. After injecting 0.1% pentobarbital sodium, blood was collected from the eye-socket vein, the mice were decapitated, and the tumor and lung tissues were carefully removed.
After homogenizing 50 mg of right-lung-tissue sample, 2 mL of acetonitrile was added to precipitate proteins. The mixture was oscillated for 2 min and then centrifuged for 10 min (12,000 rpm, 4 °C). The supernatant from the new centrifuge tube was collected and dried with nitrogen at room temperature. Finally, the supernatant was redissolved in 50 μL of acetonitrile solution containing 0.1% formic acid. After oscillating for 1 min, another centrifugation step was performed, and the resulting supernatant was used for analysis.
Samples were analyzed on the Vanquish UPLC System (Thermo, Waltham, MA, USA). The Agilent C18 column (4.6 × 150 mm, 4 μm, PN:693970-902T) was selected. The mobile phase was composed of 0.1% formic acid aqueous solution (A) and 0.1% formic acid acetonitrile solution (B). The procedure of gradient elution was as follows: 0–10 min, 95–75% A; 10–25 min, 75–45% A; 25–40 min, 45–30% A; 40–50 min, 30–5% A; 55–55.1 min, 5–95% A; 55.1–60 min, 95% A. The column temperature was set to 30 °C with the flow rate of 0.3 mL/min and the injection volume of 3.0 μL. The mass-spectrometry detection with negative-ion mode was carried out using an Orbitrap Exploris 120 Mass Spectrometer (Thermo, Waltham, MA, USA) and Electrospray ionization (ESI). The sheath-gas-flow rate was […] and the auxiliary-gas-flow rate was […]. The capillary temperature was 325 °C, and the resolution was 120,000 in full scan mode with the mass scan range of 80~1500 m/z. The secondary cracking was performed with HCD at a collision voltage of 30 eV, and unnecessary MS/MS information was removed using the dynamic exclusion method.

A word on the Tmax: it is the time at which the peak concentration occurs. One may read the half-life as how long it takes for the measured level to halve. Low readings indicate rapid decline, high ones slow decline.

Turning to `CC(C)=CCC[C@](C)(O[C@@H]1O[C@H](CO)[C@@H](O)[C@H](O)[C@H]1O)[C@H]1CC[C@]2(C)[C@@H]1[C@H](O)C[C@@H]1[C@@]3(C)CC[C@H](O)C(C)(C)[C@@H]3[C@@H](O[C@@H]3O[C@H](CO)[C@@H](O)[C@H](O)[C@H]3O[C@@H]3OC[C@@H](O)[C@H](O)[C@H]3O)C[C@]12C` [Notoginsenoside R1], the T1/2 is 1.24 ± 0.0245 h, the Tmax is 0.125 ± 0.059 h, the “exposure level in lung tissue” value is “extremely low” and the “time to reach maximum concentration (Cmax) after administration” value is on record as at most 15 min.

Consider `CC(C)(O)[C@H]1CC[C@@](C)([C@H]2CC[C@]3(C)[C@@H]2[C@H](O)C[C@@H]2[C@@]4(C)CC[C@H](O)C(C)(C)[C@@H]4[C@@H](O[C@@H]4O[C@H](CO)[C@@H](O)[C@H](O)[C@H]4O)C[C@]23C)O1` [Pseudoginsenoside RT5], for which the T1/2 was determined as 10.572 ± 2.3632 h, the time of peak concentration (Tmax) worked out at 0.25 ± 0 h, the half-life was 10.6 h and the “time to reach maximum concentration (Cmax) after administration” value is reported as at most 15 min.
